This is an account of results in patent US11981696B2, “Fluoro-pyridinone phosphates and boronates useful as antibacterial agents” (Pfizer Inc., priority 2018, dated 2024).

The term solubility denotes the concentration that dissolves in the medium under given conditions. In general, MIC refers to the smallest concentration in the dilution series that meets the test's criterion for growth inhibition.

≈ marks a conversion by molar mass, not a printed value. Bounds are passed on as bounds.

The subject of one data set is hepatocytes from monkey. As to the kind of experiment: In vitro hepatocyte study, monkey. As to conditions: concomitant appearance of parent compound and its glucuronide metabolite. The data set is classed as in vitro ADME. The text has this: (§1) In vitro hepatocyte study: The disposition of (2R)-4-[5-fluoro-4-(2-fluoro-4-methoxyphenyl)-2-oxopyridin-1(2H)-yl]-N-hydroxy-2-methyl-2-(methylsulfonyl) butanamide phosphate was examined in hepatocytes from mouse, rat, dog, monkey and human. In each case, qualitatively it was observed that the (2R)-4-[5-fluoro-4-(2-fluoro-4-methoxyphenyl)-2-oxopyridin-1(2H)-yl]-N-hydroxy-2-methyl-2-(methylsulfonyl) butanamide phosphate disappeared, concomitant with appearance of (2R)-4-[5-fluoro-4-(2-fluoro-4-methoxyphenyl)-2-oxopyridin-1(2H)-yl]-N-hydroxy-2-methyl-2-(methylsulfonyl) butanamide (parent compound) and a glucuronide metabolite of the parent compound. In Vivo Studies

The next data set relates to hepatocytes from human. The data set can be described thus: In vitro hepatocyte study, human. The data set is classed as in vitro ADME. As to conditions: concomitant appearance of parent compound and its glucuronide metabolite.
Text: as §1

The next data set has as its system hepatocytes from rat. As to the kind of experiment: In vitro hepatocyte study, rat. The data set is classed as in vitro ADME. As to conditions: concomitant appearance of parent compound and its glucuronide metabolite.
Text: as §1

The test system of the next data set is hepatocytes from mouse. The data set can be described thus: In vitro hepatocyte study, mouse. The data set is classed as in vitro ADME. As to conditions: concomitant appearance of parent compound and its glucuronide metabolite.
Text: as §1

The test system of another data set is hepatocytes from dog. As to the kind of experiment: In vitro hepatocyte study, dog. In kind it is in vitro ADME. As to conditions: concomitant appearance of parent compound and its glucuronide metabolite.
Text: as §1

Data set [1] is described as follows: Solubility in normal saline. As to conditions: saline or isotonic. In kind it is physicochemical.
Data set [2] has as its system Acinetobacter baumannii/haemolyticus AB-3167. As to the kind of experiment: MIC determination (CLSI), AB-3167. The data set is classed as cell-based. To be noted: multidrug-resistant clinical isolate, lower of duplicate values. How it is done:
(§2) B) MIC determinations: The in vitro antibacterial activity of compounds was evaluated by minimum inhibitory concentration (MIC) testing according to Clinical and Laboratory Standards Institute (CLSI). See: Clinical and Laboratory Standards Institute. Methods for Dilution Antimicrobial Susceptibility Tests for Bacteria that Grow Aerobically; Approved Standard-Eighth Edition. CLSI document M7-A8 [ISBN 1-56238-689-1]. Clinical and Laboratory Standards Institute, 940 West Valley Road, Suite 1400, Wayne, Pennsylvania 19087-1898 USA, 2006; also Clinical and Laboratory Standards Institute. Performance Standards for Antimicrobial Susceptibility Testing; Twentieth Informational Supplement. CLSI document M100-S20 [ISBN1-56238-716-2]. Clinical and Laboratory Standards Institute.
(§3) The MIC determination is a standard laboratory method for evaluating the antibacterial activity of a compound. […] The MIC is then determined by visually inspecting the drug effect at each concentration, and identifying the lowest drug concentration that has inhibited bacterial growth as compared to the drug free control. […]
(§4) The MIC values described in Table 3 below were derived from assays wherein each test compound was evaluated in duplicate. […] While a single MIC is reported for each compound and each microorganism, the reader should not conclude that each compound was only tested once. […]

The test system of another data set is Escherichia coli EC-1. As to the kind of experiment: MIC determination (CLSI), EC-1. As to conditions: EC1, read-out: EC-1 MIC. The data set is classed as cell-based. The procedure:
as §2, §3, §4

The test system of data set [3] is Pseudomonas aeruginosa UI-18 (PA-7). As to the kind of experiment: MIC determination (CLSI), PA-7. The data set is classed as cell-based. To be noted: wild-type UI-18, lower of duplicate values. How it is done:
as §2, §3, §4

Data set [4] relates to Klebsiella pneumoniae KP-3700. The data set can be described thus: MIC determination (CLSI), KP-3700. The data set is classed as cell-based. To be noted: ciprofloxacin-resistant, ESBL clinical isolate; lower of duplicate values. The procedure:
as §2, §3, §4

In the case of `COc1ccc(-c2cc(=O)n(CC[C@](C)(C(=O)NOP(=O)(O)O)S(C)(=O)=O)cc2F)c(F)c1` [Example 1, (2R)-4-(5-fluoro-4-(2-fluoro-4-methoxyphenyl)-2-oxopyridin-1(2H)-yl)-2-methyl-2-(methylsulfonyl)butanamido phosphate], the “disposition in hepatocytes (qualitative)” value with hepatocytes from monkey, in the data set on hepatocytes from human, with hepatocytes from rat, in the data set with hepatocytes from mouse and in the data set on hepatocytes from dog was “disappeared” throughout.

The compound `COc1ccc(-c2cc(=O)n(CC[C@](C)(C(=O)NOP(=O)([O-])[O-])S(C)(=O)=O)cc2F)c(F)c1.[Na+].[Na+]` [Example 3, (R)-4-(5-fluoro-4-(2-fluoro-4-methoxyphenyl)-2-oxopyridin-1(2H)-yl)-2-methyl-2-(methylsulfonyl)butanamido phosphate, Disodium Salt] displayed a solubility in [1] not below 20 mg/mL.

Consider `COc1ccc(-c2cc(=O)n(CC[C@](C)(C(=O)NO)S(C)(=O)=O)cc2F)c(F)c1` [Parent Compound, (2R)-4-[5-fluoro-4-(2-fluoro-4-methoxyphenyl)-2-oxopyridin-1(2H)-yl]-N-hydroxy-2-methyl-2-(methylsulfonyl)butanamide], for which the solubility in data set [1] is less than 1 mg/mL. The MIC was more than 64 µg/mL in data set [2], 0.25 µg/mL (≈ 0.581 µM) in the data set on Escherichia coli EC-1 and 0.5 µg/mL (≈ 1.16 µM) in data set [3]. In data set [4], the “KP-3700 MIC” value is 0.5 µg/mL.
